Converted amounts (≈) assume the structure as drawn. Like-named read-outs stand apart in the source and are kept apart here.
Key:
[1] = Phase 1a single-dose study in humans, Stage 1: pharmacokinetics; assay type: in vivo, human; settings: for Cmax / Vd/F / AUC(0-t) / Tmax / half-life: both sexes, human, plasma; for AUC(0-t): read-out: AUC0-24
Method: A first-in-human Phase 1a randomized, double-blind, placebo-controlled, single-dose study, was conducted in 3 stages: In Stage 1, four sequential cohorts of 8 subjects each were randomly assigned to receive progressively higher single oral administrations of Compound 2 at doses of 50, 100, 200, and 300 mg (n=6 per cohort; 3 males and 3 females) or placebo (n=2 per cohort; 1 male and 1 female).
The primary endpoint of safety was assessed by monitoring adverse events (AEs), laboratory abnormalities, and cardiac findings (ECG). Secondary endpoints included evaluation of the PK parameters of area under the plasma concentration-time curve (AUC), maximum plasma concentration (Cmax), time of maximum concentration (Tmax), apparent volume of distribution (Vd/F), terminal elimination half-life (t1/2), terminal elimination rate constant (λz), and apparent clearance (Cl/F) as well as the PD parameter of BTK inhibition in whole blood.
Compound 2 is a succinate salt. Plasma concentrations of the free base (Compound 1) were measured and used for estimation of PK parameters and elaboration of concentration/PD relationships.

[2] = system: primary CLL cells in the presence of HS5 stromal protection; experiment: Viability of primary CLL cells in stromal co-culture (7AAD); assay type: cell-based; settings: Homo sapiens, CLL cell, 48 hours, read-out: decrease of viability
Method: (§1) Methods: Primary CLL B cells were isolated from the whole blood of consented patients by FICOLL density centrifugation and rosette-sep negative selection. Annexin V and propidium iodide flow cytometry was used to measure patient CLL cell viability and 7AAD was used to measure viability in stromal co-culture. CD40 and CD86 expression was evaluated via flow cytometry subsequent to sustained 3.2 μM CpG stimulation. BCR signaling in primary CLL cells was investigated by immunoblot succeeding 1 hour treatment and following 1 hour or 24 hours of incubation with Compound 1 in XLA cell lines. MTS values were read after 24 hours of drug incubation. ITK inhibition was investigated via immunoblot after stimulation with anti-CD3 and anti-CD28 and incubation with Compound 1 for 1 hour. Compound 1 was used at a concentration of 1 μM in preclinical studies unless otherwise noted.

[3] = system: primary CLL B cells; experiment: Viability of primary patient CLL cells (Annexin V and propidium iodide flow cytometry); assay type: cell-based; settings: Homo sapiens, B-cell, 48 hours, read-out: viability, that of the untreated condition
Method: as §1

[4] = biological target: T1, BMX (Homo sapiens, UniProt P51813); experiment: Kinase selectivity, BMX (Kd)
T1 sequence (P51813 1-675): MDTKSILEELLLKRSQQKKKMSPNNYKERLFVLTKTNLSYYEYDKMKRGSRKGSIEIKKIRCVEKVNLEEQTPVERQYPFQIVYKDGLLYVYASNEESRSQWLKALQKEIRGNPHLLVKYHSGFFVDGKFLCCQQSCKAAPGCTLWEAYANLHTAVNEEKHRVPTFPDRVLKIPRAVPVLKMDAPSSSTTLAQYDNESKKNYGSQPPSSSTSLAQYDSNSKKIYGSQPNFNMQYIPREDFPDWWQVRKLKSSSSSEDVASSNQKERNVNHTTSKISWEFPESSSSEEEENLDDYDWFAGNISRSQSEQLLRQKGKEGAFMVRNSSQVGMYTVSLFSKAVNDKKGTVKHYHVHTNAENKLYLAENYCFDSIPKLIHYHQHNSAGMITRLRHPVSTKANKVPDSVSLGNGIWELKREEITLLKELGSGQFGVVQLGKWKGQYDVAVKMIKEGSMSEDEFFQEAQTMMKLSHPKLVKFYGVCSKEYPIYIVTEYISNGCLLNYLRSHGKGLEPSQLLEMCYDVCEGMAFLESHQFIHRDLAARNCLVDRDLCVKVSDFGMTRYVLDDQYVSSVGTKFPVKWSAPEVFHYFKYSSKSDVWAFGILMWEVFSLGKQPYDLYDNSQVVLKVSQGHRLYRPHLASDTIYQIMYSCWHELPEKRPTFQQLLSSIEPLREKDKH

[5] = Solubility of Compound 2 in solvent systems (slurries, HPLC); assay type: physicochemical; settings: thermodynamic from solid, after one day at 20° C.
Method: Slurries were set up in the solvents reported in Table 1 by weighing approximately 200 mg of Compound 2, suspending the solid in 0.5 mL of solvent and checking that excess solid remained un-dissolved. The prepared samples were also used to calculate Compound 2 solubility in the solvent systems used.
The slurries prepared for the long term slurry experiments were sampled after one day at 20° C. to measure the solubility of Compound 2 in the solvent systems used. The solubility data were obtained by HPLC with respect to a response factor; six samples of Compound 2, dissolved in acetonitrile/methanol 40/60 at known concentration, were prepared and injected in HPLC. The resulting HPLC areas were used to calculate the HPLC response factor for Compound 2 (data not shown).

[6] = oral, Cohort 1 (50 mg), mean (SD)
[7] = oral, Cohort 2 (100 mg), mean (SD)
[8] = oral, Cohort 3 (200 mg), mean (SD)
[9] = oral, Cohort 4 (300 mg), mean (SD)

In the case of NC(=O)[C@H]1CCN(c2ncnc(N)c2F)C[C@@H]1N1CCC[C@@H](Nc2cc(Cl)cc(C(F)(F)F)c2)C1=O [Compound 1, (3R,3′R,4′S)-1′-(6-amino-5-fluoropyrimidin-4-yl)-3-((3-chloro-5-(trifluoromethyl)phenyl)amino)-2-oxo-[1,3′-bipiperidine]-4′-carboxamide], the t1/2 ([1]; 50 mg (single dose), after dosing with Compound 2, mean) is reported as 8.14 h, the “dose proportionality of total exposure (AUC and Cmax)” value ([1]; 50-300 mg single oral dose) is reported as “increased approximately proportionally with dose” and the CL/F ([1]; Cohort 1 (50 mg), mean (SD)) is reported as 6139 (1250) mL/hr. The CL/F ([1]; Cohort 2 (100 mg), mean (SD)) was 7162 (2900) mL/hr, the CL/F ([1]; Cohort 3 (200 mg), mean (SD)) was 7886 (3724) mL/hr and the CL/F ([1]; Cohort 4 (300 mg), mean (SD)) was 7615 (1595) mL/hr. For the same compound, the Cmax ([1]; oral, 50 mg (single dose), after dosing with Compound 2, mean) was 1910 ng/mL, the Vd/F [1, 6] was 69.6 L and the AUC(0-t) [1, 6] was 7830 ng·h/mL. It also gave a Tmax ([1]; oral, Cohort 1 (50 mg), mean (SD), read-out: Tmax) of 1.17 h, a half-life ([1]; oral, Cohort 1 (50 mg), mean (SD), read-out: t1/2 (converted)) of 8.14 h and a Vd/F [1, 7] of 72.9 L. The Cmax ([1]; oral, Cohort 2 (100 mg), mean (SD), N 6) was 3400 ng/mL, the AUC(0-t) [1, 7] was 14500 ng·h/mL and the Tmax ([1]; oral, Cohort 2 (100 mg), mean (SD), read-out: Tmax) was 1.25 h. For the same compound, the half-life ([1]; oral, Cohort 2 (100 mg), mean (SD), read-out: t1/2 (converted)) was 7.43 h, the Vd/F [1, 8] was 118 L and the Cmax ([1]; oral, Cohort 3 (200 mg), mean (SD), N 6) was 5960 ng/mL. The AUC(0-t) [1, 8] was 29900 ng·h/mL, the Tmax ([1]; oral, Cohort 3 (200 mg), mean (SD), read-out: Tmax) was 1 h and the half-life ([1]; oral, Cohort 3 (200 mg), mean (SD), read-out: t1/2 (converted)) was 10.5 h. It also gave a Vd/F [1, 9] of 177 L, a Cmax ([1]; oral, Cohort 4 (300 mg), mean (SD), N 6) of 6800 ng/mL and an AUC(0-t) [1, 9] of 35400 ng·h/mL. The Tmax ([1]; oral, Cohort 4 (300 mg), mean (SD), read-out: Tmax) was 1.5 h, the half-life ([1]; oral, Cohort 4 (300 mg), mean (SD), read-out: t1/2 (converted)) was 17 h and the half-life ([1]; 50-300 mg single oral dose, read-out: Mean t1/2 values across all dose cohorts) was 7.43 to 17 h. For the same compound, the Cmax ([1]; Cohort 1 (50 mg Compound 2, single oral), mean (SD), N 6) was 1910 ng/mL, the Tmax ([1]; all dose cohorts, oral, range: 0.5-3.0, read-out: median Tmax) was 1 h and the cytotoxicity at 1 µM [2] was 5.5%. For the same compound, the viability at 0.1 µM ([3]; 0.1 μM) was 96.7%, the viability at 1 µM ([3]; 1.0 μM) was 96.1% and the viability at 10 µM ([3]; 10.0 μM) was 88.1%. The Kd [4] was at least 200 nM.
In the case of NC(=O)[C@H]1CCN(c2ncnc(N)c2F)C[C@@H]1N1CCC[C@@H](Nc2cc(Cl)cc(C(F)(F)F)c2)C1=O [Compound 2], the solubility at 1 day ([5]; organic solvent or mixture, 1,4-dioxane) is reported as 22 mg/mL (≈ 41.5 mM), the solubility at 1 day ([5]; organic solvent or mixture, 2-propanol/water 90/10) is reported as 41 mg/mL (≈ 77.4 mM) and the solubility at 1 day ([5]; organic solvent or mixture, 2-propanol) is reported as 11 mg/mL (≈ 20.8 mM). The solubility at 1 day ([5]; organic solvent or mixture, Acetone) was 11 mg/mL (≈ 20.8 mM), the solubility at 1 day ([5]; organic solvent or mixture, Cyclohexanone) was 16 mg/mL (≈ 30.2 mM) and the solubility at 1 day ([5]; organic solvent or mixture, Ethanol/water 90/10) was 49 mg/mL (≈ 92.5 mM). It also gave a solubility at 1 day ([5]; organic solvent or mixture, Ethanol) of 21 mg/mL (≈ 39.6 mM), a solubility at 1 day ([5]; organic solvent or mixture, Ethyl acetate) of 2 mg/mL (≈ 3.77 mM) and a solubility at 1 day ([5]; organic solvent or mixture, Isopropyl acetate) of 1 mg/mL (≈ 1.89 mM). For the same compound, the solubility at 1 day ([5]; organic solvent or mixture, Methanol/water 90/10) was 100 mg/mL (≈ 189 mM), the solubility at 1 day ([5]; organic solvent or mixture, Methanol) was 103 mg/mL (≈ 194 mM) and the solubility at 1 day ([5]; organic solvent or mixture, Tert-butylmethyl ether) was 1 mg/mL (≈ 1.89 mM). For the same compound, the solubility at 1 day ([5]; Water) was 1 mg/mL (≈ 1.89 mM).

Source: patent US11174243B2, “Succinate forms and compositions of Bruton's tyrosine kinase inhibitors” (Sunesis Pharmaceuticals, Inc., priority 2016, dated 2021)
